Data taken from article PMC5218480 (PLoS ONE, 2017).

Tested on: MV-4-11 cells
Assay: Gene expression microarray analysis (Affymetrix PrimeView) and GSEA
Assay type: cell-based, human
Parameters: RFU PODN (11730768_x_at) / Fold change /veh PODN (11730768_x_at) / RFU LINC00158 (11744669_a_at) / Fold change /veh LINC00158 (11744669_a_at) / RFU DUSP10 (11751237_a_at) / Fold change /veh DUSP10 (11751237_a_at) / RFU ID3 (11757404_x_at) / Fold change /veh ID3 (11757404_x_at) / RFU PLEKHG5 (11737974_s_at) / Fold change /veh PLEKHG5 (11737974_s_at) / RFU LRRC4B (11730491_at) / Fold change /veh LRRC4B (11730491_at) / RFU GIMAP4 (11747438_a_at) / Fold change /veh GIMAP4 (11747438_a_at) / RFU KRT8 (11758183_x_at) / Fold change /veh KRT8 (11758183_x_at) / RFU CNN1 (11734310_a_at) / Fold change /veh CNN1 (11734310_a_at) / RFU VPS37D (11726825_at) / Fold change /veh VPS37D (11726825_at) / RFU C10orf10 (11716522_x_at) / Fold change /veh C10orf10 (11716522_x_at) / RFU KIR2DL2 /// KIR2DL4 /// KIR2DL5A /// KIR2DL5B /// KIR2DS1 /// KIR2DS2 /// KIR2DS3 /// KIR2DS4 /// KIR3DL3 /// KIR3DL3 /// KIR3DS1 (11738374_at) / Fold change /veh KIR2DL2 /// KIR2DL4 /// KIR2DL5A /// KIR2DL5B /// KIR2DS1 /// KIR2DS2 /// KIR2DS3 /// KIR2DS4 /// KIR3DL3 /// KIR3DL3 /// KIR3DS1 (11738374_at) / RFU C1QL1 (11718748_at) / Fold change /veh C1QL1 (11718748_at) / RFU TMPRSS4 (11747572_a_at) / Fold change /veh TMPRSS4 (11747572_a_at) / RFU HAMP (11756126_x_at) / Fold change /veh HAMP (11756126_x_at) / RFU RNFT2 (11725882_a_at) / Fold change /veh RNFT2 (11725882_a_at) / RFU NR4A2 (11747474_a_at) / Fold change /veh NR4A2 (11747474_a_at) / RFU ABCC12 (11746883_a_at) / Fold change /veh ABCC12 (11746883_a_at) / RFU TMEM136 (11760407_x_at) / Fold change /veh TMEM136 (11760407_x_at) / RFU CLDN22 /// WWC2 (11732394_at) / Fold change /veh CLDN22 /// WWC2 (11732394_at) / RFU HLA-DPB1 (11760878_x_at) / Fold change /veh HLA-DPB1 (11760878_x_at) / RFU SPINT1 (11716480_a_at) / Fold change /veh SPINT1 (11716480_a_at) / RFU GAP43 (11754022_s_at) / Fold change /veh GAP43 (11754022_s_at) / RFU A4GNT (11735810_at) / Fold change /veh A4GNT (11735810_at) / RFU PRB3 (11715151_x_at) / Fold change /veh PRB3 (11715151_x_at) / RFU TUBB4B (11761932_at) / Fold change /veh TUBB4B (11761932_at) / RFU CAPN14 (11732068_a_at) / Fold change /veh CAPN14 (11732068_a_at) / RFU TMCC2 (11721928_a_at) / Fold change /veh TMCC2 (11721928_a_at) / RFU IRGQ (11745062_a_at) / Fold change /veh IRGQ (11745062_a_at) / RFU FAM174B (11720279_a_at) / Fold change /veh FAM174B (11720279_a_at) / RFU TMPRSS4 (11748680_a_at) / Fold change /veh TMPRSS4 (11748680_a_at) / RFU FAM212B (11763350_a_at) / Fold change /veh FAM212B (11763350_a_at) / RFU PLEKHG5 (11743358_a_at) / Fold change /veh PLEKHG5 (11743358_a_at) / RFU ZSCAN30 (11745921_a_at) / Fold change /veh ZSCAN30 (11745921_a_at) / RFU CMKLR1 (11741424_a_at) / Fold change /veh CMKLR1 (11741424_a_at) / RFU LOC101060620 /// MAPK8IP1 (11723275_at) / Fold change /veh LOC101060620 /// MAPK8IP1 (11723275_at) / RFU SPTSSB (11747773_x_at) / Fold change /veh SPTSSB (11747773_x_at) / RFU PRSS12 (11739890_at) / Fold change /veh PRSS12 (11739890_at) / RFU BIN1 (11741810_x_at) / Fold change /veh BIN1 (11741810_x_at) / RFU WNT11 (11732464_a_at) / Fold change /veh WNT11 (11732464_a_at) / RFU C10orf10 (11716521_a_at) / Fold change /veh C10orf10 (11716521_a_at) / RFU C5orf56 (11738089_at) / Fold change /veh C5orf56 (11738089_at) / RFU CYB561 (11721691_x_at) / Fold change /veh CYB561 (11721691_x_at) / RFU ANKRD19P (11752326_a_at) / Fold change /veh ANKRD19P (11752326_a_at) / RFU OR2T12 /// OR2T33 /// OR2T8 (11738714_s_at) / Fold change /veh OR2T12 /// OR2T33 /// OR2T8 (11738714_s_at) / RFU VCAN (11748164_a_at) / Fold change /veh VCAN (11748164_a_at) / RFU JSRP1 (11732532_at) / Fold change /veh JSRP1 (11732532_at) / RFU KRTAP10-11 (11738290_x_at) / Fold change /veh KRTAP10-11 (11738290_x_at) / RFU MYO3A (11730013_a_at) / Fold change /veh MYO3A (11730013_a_at) / RFU EBF3 (11725865_a_at) / Fold change /veh EBF3 (11725865_a_at) / RFU CAMK2N1 (11719241_x_at) / Fold change /veh CAMK2N1 (11719241_x_at) / RFU C5orf56 (11738088_a_at) / Fold change /veh C5orf56 (11738088_a_at) / RFU OLFML3 (11715873_a_at) / Fold change /veh OLFML3 (11715873_a_at) / RFU LOC100653217 /// NTM (11731650_a_at) / Fold change /veh LOC100653217 /// NTM (11731650_a_at) / RFU MAPK11 (11762145_a_at) / Fold change /veh MAPK11 (11762145_a_at) / RFU FIZ1 (11724087_x_at) / Fold change /veh FIZ1 (11724087_x_at) / RFU OASL (11726364_x_at) / Fold change /veh OASL (11726364_x_at) / RFU SOX15 (11748057_x_at) / Fold change /veh SOX15 (11748057_x_at) / RFU CD79A (11719716_a_at) / Fold change /veh CD79A (11719716_a_at) / RFU HIST1H1D (11736915_at) / Fold change /veh HIST1H1D (11736915_at) / RFU CASKIN2 (11723855_a_at) / Fold change /veh CASKIN2 (11723855_a_at) / RFU LOC730098 (11760151_x_at) / Fold change /veh LOC730098 (11760151_x_at) / RFU OR4N2 (11742367_at) / Fold change /veh OR4N2 (11742367_at) / RFU PRRT2 (11749266_a_at) / Fold change /veh PRRT2 (11749266_a_at) / RFU SNX32 (11753110_a_at) / Fold change /veh SNX32 (11753110_a_at) / RFU CDHR5 (11726645_a_at) / Fold change /veh CDHR5 (11726645_a_at) / RFU RCAN1 (11760418_a_at) / Fold change /veh RCAN1 (11760418_a_at) / RFU FAM167A (11723789_a_at) / Fold change /veh FAM167A (11723789_a_at) / RFU FAM26E (11764081_at) / Fold change /veh FAM26E (11764081_at) / RFU ISYNA1 (11749810_s_at) / Fold change /veh ISYNA1 (11749810_s_at) / RFU ACY1 (11761880_at) / Fold change /veh ACY1 (11761880_at) / RFU 11764098_at / Fold change /veh 11764098_at / RFU SAMD14 (11745864_x_at) / Fold change /veh SAMD14 (11745864_x_at) / RFU NPB (11741838_a_at) / Fold change /veh NPB (11741838_a_at) / RFU TMPRSS6 (11731388_a_at) / Fold change /veh TMPRSS6 (11731388_a_at) / RFU KRTAP10-2 (11738614_at) / Fold change /veh KRTAP10-2 (11738614_at) / RFU ARHGAP8 /// PRR5-ARHGAP8 (11727945_x_at) / Fold change /veh ARHGAP8 /// PRR5-ARHGAP8 (11727945_x_at) / RFU KRTAP5-7 /// NADSYN1 (11734609_at) / Fold change /veh KRTAP5-7 /// NADSYN1 (11734609_at) / RFU RASL12 (11751679_a_at) / Fold change /veh RASL12 (11751679_a_at) / RFU CDKN2B (11736163_a_at) / Fold change /veh CDKN2B (11736163_a_at) / RFU PRF1 (11729649_at) / Fold change /veh PRF1 (11729649_at) / RFU, ZNF638 /// ZNF638-IT1 / Fold change vs veh, ZNF638 /// ZNF638-IT1 / RFU, PANK3 / Fold change vs veh, PANK3 / RFU, SH3YL1 / Fold change vs veh, SH3YL1 / RFU, ZEB2 / Fold change vs veh, ZEB2 / RFU, NRIP1 / Fold change vs veh, NRIP1 / RFU, PTTG1IP / Fold change vs veh, PTTG1IP / RFU, CAPN2 / Fold change vs veh, CAPN2 / RFU, MED14 / Fold change vs veh, MED14 / RFU, SNORA58 / Fold change vs veh, SNORA58 / RFU, C1orf63 / Fold change vs veh, C1orf63 / RFU, LRRFIP1 / Fold change vs veh, LRRFIP1 / RFU, NDUFAF7 / Fold change vs veh, NDUFAF7 / RFU, SLC12A2 / Fold change vs veh, SLC12A2 / RFU, IBTK / Fold change vs veh, IBTK / RFU, ESF1 / Fold change vs veh, ESF1 / Fold change vs veh, TMEM50B / RFU, TAOK1 / Fold change vs veh, TAOK1 / RFU, ACBD3 / Fold change vs veh, ACBD3 / RFU, TMA16 / Fold change vs veh, TMA16 / RFU, RWDD3 / Fold change vs veh, RWDD3 / RFU, BCAT1 / Fold change vs veh, BCAT1 / RFU, EDEM3 / Fold change vs veh, EDEM3 / RFU, TMEM33 / Fold change vs veh, TMEM33 / RFU, WDR75 / Fold change vs veh, WDR75 / RFU, AHCTF1 / Fold change vs veh, AHCTF1 / RFU, TFRC / Fold change vs veh, TFRC / RFU, ZDHHC17 / Fold change vs veh, ZDHHC17 / RFU, NOM1 / Fold change vs veh, NOM1 / RFU, ARL8B / Fold change vs veh, ARL8B / RFU, ZBTB11 / Fold change vs veh, ZBTB11 / RFU, TAMM41 / Fold change vs veh, TAMM41 / RFU, KIAA1704 /// LOC100996395 / Fold change vs veh, KIAA1704 /// LOC100996395 / RFU, ING1 / Fold change vs veh, ING1 / RFU, TRMT61B / Fold change vs veh, TRMT61B / RFU, FUBP3 / Fold change vs veh, FUBP3 / RFU, TP53 / Fold change vs veh, TP53 / RFU, TNKS2 / Fold change vs veh, TNKS2 / RFU, ZFP14 / Fold change vs veh, ZFP14 / RFU, ACTR2 / Fold change vs veh, ACTR2 / RFU, PPP3R1 / Fold change vs veh, PPP3R1 / RFU, PIK3R1 / Fold change vs veh, PIK3R1 / RFU, HNRNPA1 / Fold change vs veh, HNRNPA1 / RFU, RNF170 / Fold change vs veh, RNF170 / RFU, ZNF28 / Fold change vs veh, ZNF28 / RFU, RNGTT / Fold change vs veh, RNGTT / RFU, OGT / Fold change vs veh, OGT / RFU, BRD1 / Fold change vs veh, BRD1 / RFU, MARS / Fold change vs veh, MARS / RFU, ZNF655 / Fold change vs veh, ZNF655 / RFU, FAHD1 / Fold change vs veh, FAHD1 / RFU, BDP1 / Fold change vs veh, BDP1 / RFU, LRRCC1 / Fold change vs veh, LRRCC1 / RFU, ARID1A / Fold change vs veh, ARID1A / RFU, ZNF146 / Fold change vs veh, ZNF146 / RFU, ZNF330 / Fold change vs veh, ZNF330 / RFU, GPN3 / Fold change vs veh, GPN3 / RFU, C9orf123 / Fold change vs veh, C9orf123 / RFU, N4BP2L2 / Fold change vs veh, N4BP2L2 / RFU, ARFIP1 / Fold change vs veh, ARFIP1 / RFU, FAM179B / Fold change vs veh, FAM179B / RFU, BCL10 / Fold change vs veh, BCL10 / RFU, UHRF1BP1L / Fold change vs veh, UHRF1BP1L / RFU, BET1 / Fold change vs veh, BET1 / RFU, CNOT2 / Fold change vs veh, CNOT2 / RFU, ZNF268 / Fold change vs veh, ZNF268 / Fold change vs veh, ZNF507 / RFU, DGCR2 / Fold change vs veh, DGCR2 / RFU, WDSUB1 / Fold change vs veh, WDSUB1 / Fold change vs veh, HSP90B1 /// MIR3652 / RFU, ADSS / Fold change vs veh, ADSS / RFU, GK / Fold change vs veh, GK / RFU, ZNF148 / Fold change vs veh, ZNF148 / RFU, TAF9 / Fold change vs veh, TAF9 / RFU, SLC1A5 / Fold change vs veh, SLC1A5 / RFU, SLMO2 / Fold change vs veh, SLMO2 / RFU, ABCC4 / Fold change vs veh, ABCC4 / RFU, LOC101060439 /// RAP1B / Fold change vs veh, LOC101060439 /// RAP1B / RFU, RFX7 / Fold change vs veh, RFX7 / RFU, GTPBP10 / Fold change vs veh, GTPBP10 / RFU, CNEP1R1 / Fold change vs veh, CNEP1R1 / RFU, BIVM-ERCC5 /// ERCC5 / Fold change vs veh, BIVM-ERCC5 /// ERCC5 / RFU, ILF3 / Fold change vs veh, ILF3 / RFU 11762660_at / Fold change /veh 11762660_at / RFU VCAN (11757783_s_at) / Fold change /veh VCAN (11757783_s_at) / RFU DDX43 (11728927_at) / Fold change /veh DDX43 (11728927_at) / RFU KRT8 (11758188_x_at) / Fold change /veh KRT8 (11758188_x_at) / RFU NKD1 (11759106_at) / Fold change /veh NKD1 (11759106_at) / RFU SRD5A1 (11742802_a_at) / Fold change /veh SRD5A1 (11742802_a_at) / RFU TPSAB1 /// TPSB2 (11721975_s_at) / Fold change /veh TPSAB1 /// TPSB2 (11721975_s_at) / RFU GSTM3 (11746129_a_at) / Fold change /veh GSTM3 (11746129_a_at) / RFU IL23R (11737362_x_at) / Fold change /veh IL23R (11737362_x_at) / RFU TMEM51 (11727254_a_at) / Fold change /veh TMEM51 (11727254_a_at) / RFU PIWIL2 (11732686_x_at) / Fold change /veh PIWIL2 (11732686_x_at) / RFU ORM1 (11744905_x_at) / Fold change /veh ORM1 (11744905_x_at) / RFU CCDC152 (11743942_at) / Fold change /veh CCDC152 (11743942_at) / RFU ECM1 (11717891_a_at) / Fold change /veh ECM1 (11717891_a_at) / RFU IL23R (11748794_a_at) / Fold change /veh IL23R (11748794_a_at) / RFU TNFAIP8L3 (11732012_x_at) / Fold change /veh TNFAIP8L3 (11732012_x_at) / RFU MBOAT4 (11741988_at) / Fold change /veh MBOAT4 (11741988_at) / RFU 11764193_at / Fold change /veh 11764193_at / RFU TMEM53 (11763286_at) / Fold change /veh TMEM53 (11763286_at) / RFU MAGEB2 (11727129_at) / Fold change /veh MAGEB2 (11727129_at) / RFU TMEM200A (11744735_a_at) / Fold change /veh TMEM200A (11744735_a_at) / RFU CCDC152 (11751479_a_at) / Fold change /veh CCDC152 (11751479_a_at) / RFU FAM211A (11726209_a_at) / Fold change /veh FAM211A (11726209_a_at) / RFU RGS16 (11746705_a_at) / Fold change /veh RGS16 (11746705_a_at) / RFU VCAN (11755009_s_at) / Fold change /veh VCAN (11755009_s_at) / RFU RHOB (11743442_s_at) / Fold change /veh RHOB (11743442_s_at) / RFU RGS16 (11720943_a_at) / Fold change /veh RGS16 (11720943_a_at) / RFU RGS16 (11720944_at) / Fold change /veh RGS16 (11720944_at) / RFU, VPS4B / Fold change vs veh, VPS4B / RFU, CREB1 / Fold change vs veh, CREB1 / RFU, DNAJC13 / Fold change vs veh, DNAJC13 / RFU, GNAQ / Fold change vs veh, GNAQ / RFU, CDK5R1 / Fold change vs veh, CDK5R1 / RFU, ZRANB3 / Fold change vs veh, ZRANB3 / RFU, CUL4A / Fold change vs veh, CUL4A / RFU, CCNY / Fold change vs veh, CCNY / RFU, UFL1 / Fold change vs veh, UFL1 / RFU, COG3 / Fold change vs veh, COG3 / RFU, DIAPH2 / Fold change vs veh, DIAPH2 / RFU, SKA2 / Fold change vs veh, SKA2 / RFU, AFF3 / Fold change vs veh, AFF3 / RFU, LMF1 / Fold change vs veh, LMF1 / RFU, IPO11 / Fold change vs veh, IPO11 / RFU, DFFB / Fold change vs veh, DFFB / RFU, FOXP1 / Fold change vs veh, FOXP1 / RFU, CARD8 / Fold change vs veh, CARD8 / RFU, STRN3 / Fold change vs veh, STRN3 / RFU, ADK / Fold change vs veh, ADK / RFU, RASSF2 / Fold change vs veh, RASSF2 / RFU, WIPF1 / Fold change vs veh, WIPF1 / RFU, LARP1B / Fold change vs veh, LARP1B / RFU, RASA1 / Fold change vs veh, RASA1 / RFU, RB1 / Fold change vs veh, RB1 / RFU, PPFIA1 / Fold change vs veh, PPFIA1 / RFU, MAT2A / Fold change vs veh, MAT2A / RFU, CCT5 / Fold change vs veh, CCT5 / RFU, WDR92 / Fold change vs veh, WDR92 / RFU, CUX1 / Fold change vs veh, CUX1 / RFU, TTC7A / Fold change vs veh, TTC7A / RFU, TMEM135 / Fold change vs veh, TMEM135 / RFU, DEPTOR / Fold change vs veh, DEPTOR / RFU, CPM / Fold change vs veh, CPM / RFU, DNAJB6 / Fold change vs veh, DNAJB6 / RFU, CACNA2D3 / Fold change vs veh, CACNA2D3 / RFU, DTX4 / Fold change vs veh, DTX4 / RFU, TFCP2 / Fold change vs veh, TFCP2 / RFU, GMCL1 /// GMCL1P1 / Fold change vs veh, GMCL1 /// GMCL1P1 / RFU, AEBP2 / Fold change vs veh, AEBP2 / RFU, SNHG1 /// SNORD22 /// SNORD25 /// SNORD26 /// SNORD27 /// SNORD28 /// SNORD29 /// SNORD31 / Fold change vs veh, SNHG1 /// SNORD22 /// SNORD25 /// SNORD26 /// SNORD27 /// SNORD28 /// SNORD29 /// SNORD31 / Fold change (Aza/veh), C12orf56 (ProbeSet 11735607_a_at) / Fold change (ACY-1035/veh), C12orf56 (ProbeSet 11735607_a_at) / Fold change (Aza/veh), FGFR1OP (ProbeSet 11751329_s_at) / Fold change (ACY-1035/veh), FGFR1OP (ProbeSet 11751329_s_at) / Fold change (Aza/veh), VPS36 (ProbeSet 11739960_a_at) / Fold change (ACY-1035/veh), VPS36 (ProbeSet 11739960_a_at) / RFU SYPL1 (11715823_x_at) / Fold change /veh SYPL1 (11715823_x_at) / RFU IGFBP7 (11715501_s_at) / Fold change /veh IGFBP7 (11715501_s_at) / RFU REEP3 (11722064_at) / Fold change /veh REEP3 (11722064_at) / RFU IGLL1 (11728026_x_at) / Fold change /veh IGLL1 (11728026_x_at): dose or concentration left out as unconfirmed
Conditions: ProbeSet 11734782_x_at; LIST D

Nc1ncn([C@@H]2O[C@H](CO)[C@@H](O)[C@H]2O)c(=O)n1 [azacitidine]
RFU, WDR92: 49.30 RFU
